Assay results: US20220241349A1, “METHOD FOR PRODUCING MARINE ALGAE-DERIVED AGAROTRIOSE, AND USE THEREOF AS PREBIOTIC” (Korea University Research and Business Foundation, priority 2017, published 2022)

How the values were obtained:
[1] = test system: Bifidobacterium longum subsp. infantis ATCC 15697 strain; experiment: Agarotriose fermentation profile under test tube condition; assay type: cell-based; conditions: 5 g/L agarotriose as carbon source
Method: In order to monitor fermentation products, a Bifidobacterium longum subsp. Infantis ATCC 15697 strain was cultured under a test tube condition.

[2] = Stability test against artificial gastric juice; assay type: in vitro ADME; conditions: 37° C., 3 hours, TLC and HPLC
Text: In order to test whether agarotriose could reach the intestines without being degraded, agarotriose was reacted in artificial gastric juice for each time, and then it was confirmed whether agarotriose was degraded, using TLC and HPLC.

[3] = test system: Bifidobacterium longum subsp. infantis ATCC 15697 strain; experiment: Cell growth with each purified sugar as single carbon source (Bioscreen C); assay type: cell-based; conditions: 5 g/L of each purified sugar, 37° C.
Method: In this case, as a culture composition, 10 g/L of BactoPeptone, 5 g/L of a yeast extract, 2 g/L of K2HPO4 anhydride, 5 g/L of Na acetate anhydride, 2 g/L of NH4 citrate tribasic, 0.2 g/L of Mg sulfate heptahydrate, 0.05 g/L of Mn sulfate, 1 mL/L of Tween 80 (polysorbate 80), 0.5 g/L of cysteine, and 5 g/L of each purified sugar were used and cultured at 37° C.

[4] = test system: Bifidobacterium longum subsp. infantis ATCC 15702; experiment: Fermentation ability of agarotriose as single carbon source; assay type: cell-based
Method: (§1) In order to confirm whether agarotriose also had prebiotic effects on probiotic microorganisms other than a Bifidobacterium longum subsp. infantis ATCC 15697 strain, Bifidobacterium longum subsp. infantis ATCC 17930, Bifidobacterium longum subsp. infantis ATCC 15702, B. bifidum DSM 20082, and B. kashiwanohense DSM 21854 were cultured under agarotriose single carbon source conditions.

B. bifidum DSM 20082 = experiment: as above; assay type: cell-based
Method: as §1

[5] = test system: Bifidobacterium longum subsp. infantis ATCC 17930; experiment: as above; assay type: cell-based
Method: as §1

[6] = test system: B. kashiwanohense DSM 21854; experiment: as above; assay type: cell-based
Method: as §1

[7] = test system: crude enzyme solution of a Bifidobacterium longum subsp. infantis ATCC 15697 strain; experiment: Degradation experiment using crude enzyme solution; assay type: biochemical; conditions: 2 mg/mL crude enzyme, 2 mg/mL substrate, 30° C., pH 7.0, 2 hours
Method: In order to confirm the metabolic pathway of agarotriose, an experiment was performed on a crude enzyme solution of a Bifidobacterium longum subsp. infantis ATCC 15697 strain. For this purpose, cells and the medium were separated by centrifugation (14,000 rpm, 5 minutes, 4° C.) of a culture solution of Bifidobacterium longum subsp. infantis ATCC 15697 cultured under an agarotriose condition. An extracellular crude enzyme was obtained by ammonium sulfate precipitation of a supernatant. Further, for a cell-free extract including an intracellular crude enzyme, a supernatant crude enzyme was obtained by re-suspending cells in a 20 mM Tris-HCl buffer, and then lysing the cells by sonication, and centrifuging the lysate. During the crude enzyme experiment, 2 mg/mL of the crude enzyme and 2 mg/mL of agarotriose as a substrate were used to perform a reaction under an enzymatic reaction condition of 30° C. and 200 rpm in a 20 mM Tris-HCl buffer (pH 7.0) for 2 hours.

Row | Compound | fate of the sugar during fermentation [1] | agarotriose remained [2] | fermentation (cell growth) of the sugar as single carbon source [3] | metabolism of agarotriose [4] | metabolism of agarotriose (B. bifidum DSM 20082) | metabolism of agarotriose [5] | metabolism of agarotriose [6] | degradation of the substrate by crude enzyme [7]
1 | OC[C@H]1O[C@@H](O[C@H]2[C@H]3OC[C@@H]2O[C@@H](O[C@@H]2[C@@H](O)[C@H](O)O[C@H](CO)[C@@H]2O)[C@H]3O)[C@H](O)[C@@H](O)[C@H]1O [agarotriose] | degraded agarotriose into galactose and neoagarobiose | ≥ 80% | selectively fermented | metabolized agarotriose and degraded agarotriose into galactose and neoagarobiose | metabolized agarotriose and degraded agarotriose into galactose and neoagarobiose | metabolized agarotriose and degraded agarotriose into galactose and neoagarobiose | metabolized agarotriose and degraded agarotriose into galactose and neoagarobiose | degrading agarotriose into galactose and neoagarobiose occurred in the cell-free extract
2 | OC[C@H]1OC(O)[C@H](O)[C@@H](O[C@@H]2O[C@H]3CO[C@@H]([C@@H]2O)[C@@H]3O)[C@H]1O (stereo partly shown) [neoagarobiose, reference compound] | secreted and accumulated outside the cells without being degraded in the cells any more | – | – | – | – | – | – | not exhibited
